Experimental data reported in patent publication US8772285B2, “Benzothiazoles having histamine H3 receptor activity” (High Point Pharmaceuticals, LLC, priority 2006, dated 2014).
Where a name gives a salt, the structure may show the parent alone.

Key:
human H3 receptor = human H3 receptor (Homo sapiens (Human), UniProt Q9Y5N1); test: Functional assay II, [35S]GTPγS assay; assay type: biochemical; conditions: membranes from CHO cells stably expressing the human H3 receptor
Procedure: The ability of the compounds to bind and interact with the human H3 receptor as agonists, inverse agonists and/or antagonists, is determined by a functional assay, named [^35S]GTPγS assay. The assay measures the activation of G proteins by catalyzing the exchange of guanosine 5′-diphosphate (GDP) by guanosine 5′-triphosphate (GTP) at the -subunit. The GTP-bounded G proteins dissociate into two subunits, GGTP and Gβγ, which in turn regulate intracellular enzymes and ion channels. GTP is rapidly hydrolysed by the G-sub-unit (GTPases) and the G protein is deactivated and ready for a new GTP exchange cycle. […] GTPγS, a non-hydrolysed analogue of GTP, is determined. This process can be monitored in vitro by incubating cell membranes containing the G protein coupled receptor H3 with GDP and [^35S] […] This procedure is repeated twice except for the last homogenization step, the protein concentration is determined, and membranes are diluted to a protein concentration of 2 mg/ml, aliquoted and kept at −80° C. until use.
In order to study the presence and the potency of an inverse agonist/antagonist, the H3-receptor agonist ligand R-α-methyl histamine (RAMHA) is added. The ability of the test compound to counteract the effect of RAMHA is measured. […] The plates are centrifuged at 1500 rpm for 10 min and the radioactivity is measured using a Top-counter. […]

[1] = system: Sprague-Dawley (SD) male rats; test: Open cage schedule-fed rat model; assay type: in vivo; conditions: dose 15 mg/kg p.o.
Procedure: The ability of the present compounds to reduce weight is determined using the in vivo open cage Schedule-fed rat model.
Sprague-Dawley (SD) male rats of an age of about 1½ to 2 months and a weight of about 200-250 g are purchased from Møllegård Breeding and Research Centre A/S (Denmark). On arrival they are allowed some days of acclimatisation before being placed in individual open plastic cages. They are habituated to the presence of food (Altromin pelleted rat chow) in their home cage for only 7 hours each day (from 07.30 to 14.30, seven days a week). Water is present ad libitum. Once the consumption of food has stabilised after 7 to 9 days, the animals are ready for use.
Each animal is used only once to avoid carry-over effects between treatments. During the test sessions, the test compound is administered intraperitoneally or orally 30 min before the start of the sessions. One group of animals is administered the test compound at different doses, and a control group of animals receives vehicle. Food and water intake are monitored at 1, 2 and 3 hours post administration.
Any side effects (manifested as barrel-rolling, bushy fur etc.) may rapidly be detected, since the animals are kept in transparent plastic cages to enable continuous monitoring.

Chain of human H3 receptor (Q9Y5N1 whole entry): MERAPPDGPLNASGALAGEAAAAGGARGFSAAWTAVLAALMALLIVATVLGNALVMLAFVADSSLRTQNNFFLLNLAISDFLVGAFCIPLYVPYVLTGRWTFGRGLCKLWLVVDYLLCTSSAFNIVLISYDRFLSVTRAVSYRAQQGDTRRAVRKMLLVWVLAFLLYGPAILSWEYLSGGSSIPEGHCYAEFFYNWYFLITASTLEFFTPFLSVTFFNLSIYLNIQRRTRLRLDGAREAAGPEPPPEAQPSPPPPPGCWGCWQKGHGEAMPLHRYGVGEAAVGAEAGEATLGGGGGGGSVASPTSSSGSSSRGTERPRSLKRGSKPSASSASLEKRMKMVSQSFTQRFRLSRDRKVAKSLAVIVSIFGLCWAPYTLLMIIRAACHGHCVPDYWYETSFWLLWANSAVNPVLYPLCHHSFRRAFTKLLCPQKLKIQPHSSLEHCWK

Ki (human H3 receptor) [nM]	Structure (SMILES)	Open cage schedule-fed rat model, food intake at 3 h [1]
1.8	O=C(O)C(F)(F)F.c1cc2nc(N3CCN(C4CC4)CC3)sc2cc1CN1CCCC1 [Example 17, 2-(4-Cyclopropylpiperazin-1-yl)-6-(pyrrolidin-1-ylmethyl)benzothiazole, trifluoroacetate]	81.2 % of vehicle
0.9	c1cc2nc(N3CCN(C4CC4)CC3)sc2cc1CNC1CC1 [Example 27, Cyclopropyl-[2-(4-cyclopropylpiperazin-1-yl)benzothiazol-6-ylmethyl]-amine, trifluoroacetate]	82.9 % of vehicle
